Assays:
Type in all cases: cell-based, Beta vulgaris
[1] = system: embryogenic tissue masses of sugar beet; experiment: Repetitive embryogenic culture: optimization of proliferation medium; settings: for Effect of media on repetitive embryogenic culture (description) / white embryos, share of tissues / white embryos or white clumps, share of tissues: pH 5.7
Description: These embedded tissues were manually isolated, separated and transferred into liquid medium (MS medium+BAP 0.2 mg/L). The cultures were maintained at constant agitation (100 rpm) in the dark with biweekly changes of the medium. […] Clumps of white embryogenic tissue masses were divided and transferred to fresh medium for further proliferation. […] Part of these tissues was used for the optimization of culture medium.
The optimization of proliferation medium was conducted through several stages. Each stage lasted for two weeks.

[2] = system: sugar beet seedling tissues (hypocotyls, cotyledons); experiment: Callus induction from sugar beet seedling explants on MS medium with cytokinin
Description: Seeds from three sugar beet lines ACH199 (triploid), ACH31 (triploid) and ACH203 (diploid) were obtained from Crystal and Maribo Beet Seed, Moorehead, Minn. USA. To remove seed covers, Beta vulgaris seeds were soaked in the tap water overnight and then washed under water flow. Seeds were sterilized by sequential treatment with 70% (v/v) ethanol (1 min.), 0.1% (w/v) mercuric chloride (10 min.) and 10% (v/v) household laundry bleach (20 min.) followed by four washes with sterile distilled water. Seeds were then dried on sterile filter paper. All steps were performed in a laminar flow hood.
A series of media which included additional supplements were used for callus induction, embryo proliferation and shoot formation. Phytohormones (BAP, TDZ, NAA, IAA, 2,4-D) were added to the media before autoclaving (120° C. for 20 min.). The basal medium for callus induction and embryogenesis is MS medium comprising MS basal salts, 3% sucrose, 100 mg/L myo-inositol, 0.5 mg/L nicotinic acid, 0.5 mg/L pyridoxine-HCl, 1 mg/L thiamine-HCl and 0.8% (w/v) Difco agar. The basal medium for proliferation of repetitive embryos is MSE (MS basal salts, 100 mg/L myo-inositol, 0.5 mg/L nicotinic acid, 0.5 mg/L pyridoxine-HCl, 1 mg/L thiamine-HCl).
Petri dishes (100 mm×25 mm) containing 25 mL of medium were used for all experiments. Seeds were placed on MS medium, containing either BAP 2 mg/L or TDZ 1 mg/L; plates were sealed and placed in the dark place at 21° C. Cotyledons and hypocotyls (FIG. 1A) were excised from two-week-old seedlings, cut into several pieces, incised and placed on callus induction medium (MS medium supplemented with either 2 mg/L of BAP or 1 mg/l of TDZ). Plates were incubated in the dark at 21° C. Four weeks later, when explants were necrotic and dark brown, colonies of white friable callus appeared on the explant surface (FIG. 1B). Most of the callus formed on hypocotyls. Only a few colonies were found on cotyledons.

[3] = system: friable callus of sugar beet; experiment: Shoot/plant regeneration from friable callus
Description: (§1) For regeneration of embryos, friable callus was transferred to callus regeneration medium (MS medium supplemented with either 1 mg/L of BAP or 1 mg/L of TDZ). The cultures were incubated at 25° C. under a photoperiod of 16 hours of light of cool, white light at an intensity of 30 μmol m^−2s^−1 followed by a 8 hours of darkness. Callus began to grow vigorously, and by the end of the second week, it was possible to distinguish several callus types as well as small embryos (FIG. 1C). Since every seedling was treated as a separate line, quantitative analysis can be applied to the results of the experiments.
All explants of one type from the same line (i.e. only hypocotyls) were able to produce callus, if any did. At the same time, there were only a few cases where callus formed from both cotyledons and hypocotyls of the same seedling (twice in ACH31 and four times in ACH203).

[4] = system: friable callus of sugar beet; experiment: Somatic embryogenesis from friable callus; settings: callus of ACH199 on MS+BAP at 1 mg/L
Description: as §1
After having subcultured callus tissues on regeneration medium, friable callus grew quite fast, expanded vigorously and was almost totally necrotic after a month. At this moment a few white embryogenic structures at different stages of development became visible (FIG. 1D); however, only callus of ACH199 growing on MS+BAP at 1 mg/L produced such structures. The frequency of embryogenesis was very low. Seven separate embryos were found in two out of 40 independent callus lines.

[5] = system: sugar beet somatic embryos; experiment: Germination of primary somatic embryos on MS medium containing cytokinin
Description: The embryos germinated quickly when transferred to fresh medium either supplemented with phytohormones or not. […] These embedded tissues were manually isolated, separated and transferred into liquid medium (MS medium+BAP 0.2 mg/L). The cultures were maintained at constant agitation (100 rpm) in the dark with biweekly changes of the medium. The white embryogenic tissue masses expanded in two weeks and snow-white fresh outgrowths formed on the surface of older tissues (FIG. 2B). Clumps of white embryogenic tissue masses were divided and transferred to fresh medium for further proliferation. A couple of such passages was enough to generate a large number of white clumps. Part of these tissues was used for the optimization of culture medium.

[6] = I. MSE, BAP 0.2 mg/L, glutamine 2 mg/L, carbon source 6%
[7] = IV. MSE, sucrose 6%, glycine 2 mg/L, phytohormone 0.1 mg/L
[8] = II. MSE, sucrose 6%, glutamine 2 mg/L, phytohormone 0.1 mg/L
[9] = III. MSE, sucrose 6%, BAP 0.1 mg/l, amino acid 2 mg/L
[10] = III. MSE, sucrose 6%, BAP 0.1 mg/l, amino acid 200 mg/L
[11] = IV. MSE, sucrose 6%, glycine 2 mg/L, phytohormone 0.05 mg/L
[12] = IV. MSE, sucrose 6%, glycine 2 mg/L, phytohormone 1 mg/L

OC[C@@H](O)[C@@H](O)[C@H](O)[C@H](O)CO [Mannitol, mannitol]
Effect of media on repetitive embryogenic culture (description) [1, 6]: No growth, total necrosis

OC[C@@H](O)[C@@H](O)[C@H](O)[C@@H](O)CO [Sorbitol, sorbitol]
Effect of media on repetitive embryogenic culture (description) [1, 6]: No growth, total necrosis

OC[C@H]1O[C@@](CO)(O[C@H]2O[C@H](CO)[C@@H](O)[C@H](O)[C@H]2O)[C@@H](O)[C@@H]1O [Sucrose, sucrose]
optimization of proliferation medium by modification of sucrose content [1]: did not lead to any further improvement | Effect of media on repetitive embryogenic culture (description) [1, 6]: A lot of repetitive white embryos | Effect of media on repetitive embryogenic culture (description) ([1]; V. MSE, BAP 0.1 mg/L, glycine 2 mg/L, sucrose at 3%): Necrosis of all tissues | Effect of media on repetitive embryogenic culture (description) ([1]; V. MSE, BAP 0.1 mg/L, glycine 2 mg/L, sucrose at 6%): A lot of repetitive white embryos | Effect of media on repetitive embryogenic culture (description) ([1]; V. MSE, BAP 0.1 mg/L, glycine 2 mg/L, sucrose at 8%): Growth is inhibited | Effect of media on repetitive embryogenic culture (description) ([1]; V. MSE, BAP 0.1 mg/L, glycine 2 mg/L, sucrose at 10%): Growth is inhibited | Effect of media on repetitive embryogenic culture (description) ([1]; V. MSE, BAP 0.1 mg/L, glycine 2 mg/L, sucrose at 12%): Growth is inhibited

O=C(O)COc1ccc(Cl)cc1Cl [2,4D, 2,4-dichlorophenoxyacetic acid]
colour of vitrified tissues [1]: caused bleaching of vitrified tissues | Effect of media on repetitive embryogenic culture (description) [1, 7]: Pale yellow tissues with white embryos; red pigmentation is repressed | effect on embryo proliferation ([1]; presence in the medium): negative effect

C/C(=C\CNc1ncnc2[nH]cnc12)CO [Zea, zeatin]
Effect of media on repetitive embryogenic culture (description) [1, 8]: Slowly growing, mostly meristematic, vitrified tissues

c1coc(CNc2ncnc3[nH]cnc23)c1 [Kin, kinetin]
Effect of media on repetitive embryogenic culture (description) [1, 8]: Slowly growing, mostly meristematic, vitrified tissues

NCC(=O)O [Glycine, glycine]
Effect of media on repetitive embryogenic culture (description) [1, 9]: Tissues are light yellow | white embryos, share of tissues [1, 9]: 30% | Effect of media on repetitive embryogenic culture (description) [1, 10]: Slowly growing, mostly meristematic, vitrified tissues

NC(=O)CC[C@H](N)C(=O)O [Glutamine, glutamine]
colour of vitrified tissues [1]: caused bleaching of vitrified tissues | Effect of media on repetitive embryogenic culture (description) [1, 9]: Slowly growing, dark yellow tissues | Effect of media on repetitive embryogenic culture (description) [1, 10]: Slowly growing, dark yellow tissues

c1ccc(CNc2ncnc3nc[nH]c23)cc1 [BAP, 6-benzylaminopurine]
%A: number of lines producing callus/total number of lines × 100 ([2]; Cultivar ACH31, Cotyledons): 1% | # of lines produced callus ([2]; Cultivar ACH31, Cotyledons, MS + BAP 2 mg/L or TDZ 1 mg/L): 3 | %A: number of lines producing callus/total number of lines × 100 ([2]; Cultivar ACH31, Hypocotyls, MS + BAP 2 mg/L or TDZ 1 mg/L): 20% | # of lines produced callus ([2]; Cultivar ACH31, Hypocotyls, MS + BAP 2 mg/L or TDZ 1 mg/L, dark 21° C.): 43 | %A: number of lines producing callus/total number of lines × 100 ([2]; Cultivar ACH199, Cotyledons): 2% | # of lines produced callus ([2]; Cultivar ACH199, Cotyledons, MS + BAP 2 mg/L): 4 | %A: number of lines producing callus/total number of lines × 100 ([2]; Cultivar ACH199, Hypocotyls): 15% | # of lines produced callus ([2]; Cultivar ACH199, Hypocotyls, MS + BAP 2 mg/L): 36 | %A: number of lines producing callus/total number of lines × 100 ([2]; Cultivar ACH203, Cotyledons): 5% | # of lines produced callus ([2]; Cultivar ACH203, Cotyledons, MS + BAP 2 mg/L or TDZ 1 mg/L): 11 | %A: number of lines producing callus/total number of lines × 100 ([2]; Cultivar ACH203, Hypocotyls): 18% | # of lines produced callus ([2]; Cultivar ACH203, Hypocotyls, MS + BAP 2 mg/L or TDZ 1 mg/L): 42 | # of lines produced shoots ([3]; Cultivar ACH31, Cotyledons): 0 | %B: number of lines producing callus and regenerating/total number of lines × 100 ([3]; Cultivar ACH31, Cotyledons): 0% | %B: number of lines producing callus and regenerating/total number of lines × 100 ([3]; Cultivar ACH31, Hypocotyls): 1% | # of lines produced shoots ([3]; Cultivar ACH31, Hypocotyls, regeneration medium MS + 1 mg/L BAP or TDZ): 1 | # of lines produced shoots ([3]; Cultivar ACH199, Cotyledons): 1 | %B: number of lines producing callus and regenerating/total number of lines × 100 ([3]; Cultivar ACH199, Cotyledons): 0.5% | # of lines produced shoots ([3]; Cultivar ACH199, Hypocotyls): 1 | %B: number of lines producing callus and regenerating/total number of lines × 100 ([3]; Cultivar ACH199, Hypocotyls): 0.5% | # of lines produced shoots ([3]; Cultivar ACH203, Cotyledons): 2 | %B: number of lines producing callus and regenerating/total number of lines × 100 ([3]; Cultivar ACH203, Cotyledons): 0.9% | # of lines produced shoots ([3]; Cultivar ACH203, Hypocotyls): 11 | %B: number of lines producing callus and regenerating/total number of lines × 100 ([3]; Cultivar ACH203, Hypocotyls): 5% | frequency of embryogenesis [4]: very low | independent callus lines in which embryos were found [4]: two out of 40 | separate embryos found ([4]; after a month): Seven | phenotype of embryos transferred to MS medium containing BAP or TDZ [5]: formed multiple shoots but also retained white embryogenic tissues | Effect of media on repetitive embryogenic culture (description) [1, 8]: Most tissues are red or dark yellow | white embryos, share of tissues [1, 8]: 10% | Effect of media on repetitive embryogenic culture (description) ([1]; IV. MSE, sucrose 6%, glycine 2 mg/L, phytohormone 0.01 mg/L): Necrotic tissue with some white embryos; growth is stunted | Effect of media on repetitive embryogenic culture (description) [1, 11]: Light yellow tissues | white embryos or white clumps, share of tissues [1, 11]: 25% | Effect of media on repetitive embryogenic culture (description) [1, 7]: Light yellow tissues | white embryos or white clumps, share of tissues [1, 7]: 25% | Effect of media on repetitive embryogenic culture (description) [1, 12]: Vigorously growing, vitrified tissues | white embryos, share of tissues [1, 12]: 10%

Source: patent US6555375B1, “Methods for somatic embryo formation and plant regeneration of Beta vulgaris” (priority 2000, dated 2003)
